In PMC3683333, “^11C-LY2428703, a positron emission tomographic radioligand for the metabotropic glutamate receptor 1, is unsuitable for imaging in monkey and human brains” (EJNMMI Research, 2013):

Legend:
[1] = Brain exposure comparison of five radioligands; format: in vivo, human; conditions: in vivo
Experimental: Another complicating factor is low delivery to brain (i.e., low drug exposure), which may have cause low brain uptake. We compared five different radioligands from previous studies with regard to exposure to brain (Table 3) and measured the area under the curve of plasma concentration vs. time from 0 to 20 min. […] The effective exposure was thus named because only the free concentration of drug can cross the blood–brain barrier. ^11C-LY2428703 had the highest exposure value among the tracers tested. This high exposure was due to the slow wash-out of the tracer from the vascular compartment and to negligible metabolism in plasma, that is, parent radioligand represented 99% of plasma radioactivity even at the end of the 2-h scanning session.

[2] = Whole-body biodistribution and radiation dosimetry, monkey; format: in vivo, rhesus monkeys; conditions: for radiation-absorbed dose: monkey data extrapolated to 70-kg adult male
Experimental: Two male rhesus monkeys (14.1 and 19.9 kg) were scanned after intravenous injection of 318 and 274 MBq of ^11C-LY2428703, respectively. Dynamic two-dimensional scans were acquired on the GE Advance tomograph (GE Medical Systems, Milwaukee, WI, USA) in five bed positions of the body (head to upper thigh), with frames of increasing duration (15 s to 4 min) for a total scan time of up to 115 min.
Images were analyzed by placing regions of interest on the dynamic tomographic images. Regions were drawn in identifiable source organs: brain, heart, lungs, liver, spleen, gallbladder, kidneys, lumbar vertebrae, small intestine, testes, and urinary bladder. […] The mean recovery of activity in the body above the thigh measured by PET was 85.6% of the injected activity measured by a dose calibrator. This recovered total activity in the body was used as the new injected activity for each scan.
At each time point, the activity measured within the organs was converted into the fraction of the injected dose by dividing the organ activities by the recovered injected activity. The area under the curve (AUC) of each organ was calculated by the trapezoidal method until acquisition ended. The area under the curve after the acquisition of the last image (i.e., to infinity) was calculated by assuming that the decline in radioactivity after this time point occurred only via physical decay, without any further biological clearance.
Residence times from the monkeys were converted into corresponding human values by multiplying with a factor to scale organ and body weights: (bm/om) × (oh/bh), where bm and bh are the body weights of monkey and human, respectively, and om and oh are the organ weights of monkey and human, respectively.
Radiation absorbed doses were calculated from the residence times for each source organ. We used the model for a 70-kg adult male in the OLINDA/EXM computer program.

[3] = In vitro stability in nonhuman primate blood and plasma; format: in vitro ADME; conditions: monkey, room temperature
Experimental: Nonradioactive anticoagulated blood was obtained on the day of study from either human or nonhuman primates. Aliquots of ^11C-LY2428703 (about 150 kBq) were added to 0.5 mL of whole blood or 0.5 mL of plasma. Samples were incubated at room temperature for 30 min, after which either 450 μL of the radioactive plasma was added to 720 μL of acetonitrile or 200 μL of the radioactive whole blood was added to 300 μL of water. The tube containing the blood suspension was shaken well to mix and lyse the blood cells. Seven hundred and twenty microliters of acetonitrile was subsequently added and mixed well to precipitate the proteins, followed by 100 μL of water, which was again re-mixed. Radioactivity in the tubes was measured in a gamma counter and then centrifuged at 10,000×g for 1 min. The clear supernatant liquid was injected into the high-performance liquid chromatography (HPLC) column and the precipitate counted to calculate the recovery of radioactivity into the acetonitrile.
The stability of the radioligand in whole blood or plasma was calculated as the ratio of the HPLC % composition of samples divided by the radiochemical purity of the radioligand.

[4] = Plasma free fraction by ultrafiltration, monkey; format: in vitro ADME, rhesus monkeys
Experimental: The plasma free fraction (fp) of ^11C-LY2428703 was measured by ultrafiltration through membrane filters (Centrifree; Millipore, Billerica, MA, USA) as previously described. Briefly, about 740 kBq of ^11C-LY2428703 (approximately 5 μL) was added to 650 μL of plasma. The mixture was incubated at room temperature for 10 min and then processed as described previously. When radioactivities for the filter components were high, they were allowed to decay until they were within the optimal range of the γ-counter. Determining the free fraction during preblocking was done by drawing blood samples after the preblocking treatments were initiated but immediately before administering the radioligand.
To assess the effects of blocking agents on the fP of ^11C-LY2428703, fP was measured in three monkeys both at baseline and after blockade. The first monkey was blocked with cold LY2428703 and fP was measured 2.5 min after blocker injection (which corresponds to the maximal concentration in plasma of LY2428703), and again at 40 min. The other two monkeys were blocked with DCPQ and elacridar, respectively.

[5] = Pharmacological effects of injection, human; format: in vivo; conditions: three human subjects
From the text: Three healthy females participated in the study (29 ± 2-year old, 69 ± 13 kg). All were free from current medical and psychiatric illnesses, as assessed by medical history, physical examination, electrocardiogram, urinalysis including drug screening, and blood tests (complete blood count, serum chemistries, thyroid function test, and antibody screening for syphilis, HIV, and hepatitis B). The National Institutes of Health Central Nervous System Institutional Review Board approved the protocols and the consent forms. Written informed consent was obtained from all subjects.

## Cc1c(-c2ccc(O[11CH3])cc2)nsc1NC(=O)[C@@H]1C[C@H]1C [^11C-LY2428703]
[1]
  Brain peak SUV: ~0.5 SUV
  Effective exposure (E × fp): 0.19
[2]; heart wall
  radiation-absorbed dose: 8.2 μSv/MBq
[2]; liver
  radiation-absorbed dose: 9.9 μSv/MBq
[2]; monkey data extrapolated to humans
  effective dose: 5.8 μSv/MBq
[2]; monkey, average peak
  peak uptake in liver: approximately 12 SUV
[2]; monkey, post-injection
  time of peak uptake in liver: about 5 min
[2]; other organs
  radiation-absorbed dose: less than 7 μSv/MBq
[2]; testes
  radiation-absorbed dose: 13.7 μSv/MBq
[3]
  stability in whole blood and plasma: completely stable
[4]; average of three baseline monkeys
  fp (plasma free fraction): 0.884%
[4]; monkey blocked with nonradioactive LY2428703: baseline
  fp: 1.25 ± 0.12%
[4]; monkey, 2.5 min after blockade with nonradioactive LY2428703
  fp: 1.12 ± 0.18%
[4]; monkey, 40 min after blockade with nonradioactive LY2428703
  fp: 0.89 ± 0.14%
[4]; monkey, DCPQ blocking experiment: baseline
  fp: 1.074%
[4]; monkey, after DCPQ blockade
  fp: 1.100%
[4]; monkey, after elacridar blockade
  fp: 0.912%
[4]; monkey, elacridar blocking experiment: baseline
  fp: 0.456%
[5]
  pharmacological effects (vital signs, electrocardiogram, laboratory testing, verbal reports): no pharmacological effects
